In ChEMBL document CHEMBL1201862, “PubChem BioAssay data set” (2004):
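All cell lines were grown in 96-well plates and treated with compound for 48 hours. GI50: concentration for 50% inhibition of growth.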 The source made the active and inactive calls. Rule as the data show it: active = GI50 up to about 1.1 µM and inactive = higher.

What was measured:
Experiment in all cases: inhibition of tumour cell growth, NCI panel, 48 h
MDA-MB-435 = tested on: MDA-MB-435
SK-OV-3 = tested on: SK-OV-3
DU-145 = tested on: DU-145
CAKI-1 = tested on: CAKI-1
SK-MEL-5 = tested on: SK-MEL-5
NCI-H226 = tested on: NCI-H226
MCF7 = tested on: MCF7
U-251 = tested on: U-251
RXF 393 = tested on: RXF 393
OVCAR-3 = tested on: OVCAR-3
MDA-MB-231 = tested on: MDA-MB-231
BT-549 = tested on: BT-549
IGROV-1 = tested on: IGROV-1
M14 = tested on: M14
SR = tested on: SR
SN12C = tested on: SN12C
A549 = tested on: A549
SK-MEL-28 = tested on: SK-MEL-28
SF-539 = tested on: SF-539
UO-31 = tested on: UO-31
HT-29 = tested on: HT-29
KM12 = tested on: KM12
SNB-75 = tested on: SNB-75
NCI-H23 = tested on: NCI-H23
UACC-62 = tested on: UACC-62
NCI/ADR-RES = tested on: NCI/ADR-RES
T47D = tested on: T47D
SF-295 = tested on: SF-295
PC-3 = tested on: PC-3
MOLT-4 = tested on: MOLT-4
A498 = tested on: A498
SW-620 = tested on: SW-620
SK-MEL-2 = tested on: SK-MEL-2
TK-10 = tested on: TK-10
EKVX = tested on: EKVX
UACC-257 = tested on: UACC-257
786-0 = tested on: 786-0
K562 = tested on: K562
ACHN = tested on: ACHN
OVCAR-5 = tested on: OVCAR-5
RPMI-8226 = tested on: RPMI-8226
COLO 205 = tested on: COLO 205
OVCAR-8 = tested on: OVCAR-8
SNB-19 = tested on: SNB-19
SF-268 = tested on: SF-268
HOP-62 = tested on: HOP-62
NCI-H460 = tested on: NCI-H460
HCT-116 = tested on: HCT-116
Malme-3M = tested on: Malme-3M
HOP-92 = tested on: HOP-92
HL-60 = tested on: HL-60
Hs-578T = tested on: Hs-578T
HCC 2998 = tested on: HCC 2998
CCRF-CEM = tested on: CCRF-CEM
HCT-15 = tested on: HCT-15
LOX IMVI = tested on: LOX IMVI
NCI-H522 = tested on: NCI-H522

Measured: GI50

O=C(Cn1c2ccc(Br)cc2c2nc3ccccc3nc21)N/N=C/c1ccccc1
inactive: MDA-MB-435 > 100 µM | SK-OV-3 31.1 µM | DU-145 > 100 µM | CAKI-1 > 100 µM | SK-MEL-5 > 100 µM | NCI-H226 > 100 µM | MCF7 > 100 µM | U-251 85.7 µM | RXF 393 34.9 µM | OVCAR-3 > 100 µM | MDA-MB-231 > 100 µM | BT-549 > 100 µM | IGROV-1 > 100 µM | M14 > 100 µM | SR 78.2 µM | SN12C > 100 µM | A549 > 100 µM | SK-MEL-28 > 100 µM | SF-539 12.9 µM | UO-31 > 100 µM | HT-29 > 100 µM | KM12 > 100 µM | SNB-75 83.9 µM | NCI-H23 > 100 µM | UACC-62 72.9 µM | NCI/ADR-RES > 100 µM | T47D > 100 µM | SF-295 16.3 µM | PC-3 > 100 µM | MOLT-4 > 10 µM | A498 > 100 µM | SW-620 > 100 µM | SK-MEL-2 83.6 µM | TK-10 > 100 µM | EKVX > 100 µM | UACC-257 > 100 µM | 786-0 12.3 µM | K562 43.4 µM | ACHN > 100 µM | OVCAR-5 > 100 µM | RPMI-8226 > 10 µM | COLO 205 > 100 µM | OVCAR-8 > 100 µM | SNB-19 79.3 µM | SF-268 87.3 µM | HOP-62 19.1 µM

Cc1ccc(C2(c3ccc(C)cc3)SC(=C(C#N)C#N)c3ccccc32)cc1
22.5 µM: HCT-15
inactive: MDA-MB-435 5.31 µM | SK-OV-3 > 100 µM | DU-145 > 100 µM | NCI-H460 > 100 µM | SK-MEL-5 > 100 µM | NCI-H226 > 100 µM | MCF7 81.1 µM | U-251 18.1 µM | RXF 393 > 100 µM | OVCAR-3 > 100 µM | MDA-MB-231 > 100 µM | BT-549 > 100 µM | IGROV-1 > 100 µM | M14 > 100 µM | SR 27.6 µM | HCT-116 13.2 µM | SN12C > 100 µM | A549 > 100 µM | Malme-3M 87.9 µM | HOP-92 > 100 µM | SK-MEL-28 > 100 µM | SF-539 > 100 µM | UO-31 > 100 µM | HT-29 55.6 µM | KM12 23 µM | NCI-H23 > 100 µM | UACC-62 53 µM | HL-60 26.3 µM | NCI/ADR-RES 45.6 µM | T47D > 100 µM | SF-295 97.9 µM | PC-3 83.9 µM | MOLT-4 21.1 µM | A498 > 100 µM | SW-620 6.75 µM | SK-MEL-2 2.9 µM | TK-10 > 100 µM | EKVX > 100 µM | Hs-578T > 100 µM | 786-0 > 100 µM | K562 7.67 µM | HCC 2998 89.7 µM | ACHN > 100 µM | OVCAR-5 > 100 µM | OVCAR-8 > 100 µM | SNB-19 > 100 µM | SF-268 > 100 µM | HOP-62 31.4 µM | CCRF-CEM 58.3 µM

CN(C)C1C(=O)C(C(N)=O)=C(O)C2(O)C(O)=C3C(=O)c4c(O)cccc4C(C)(O)C3CC12 (stereo unspecified)
81.1 µM: HCT-15
inactive: SK-OV-3 55.6 µM | DU-145 > 100 µM | LOX IMVI 59 µM | CAKI-1 62.4 µM | MCF7 > 100 µM | NCI-H522 86.7 µM | RXF 393 66.5 µM | BT-549 64 µM | IGROV-1 93.3 µM | A549 86.1 µM | Malme-3M 86.1 µM | KM12 > 100 µM | T47D > 100 µM | PC-3 76.7 µM | A498 52.2 µM | TK-10 > 100 µM | EKVX > 100 µM | Hs-578T 63.4 µM | RPMI-8226 81.7 µM
